BindingDB's records for doi:10.1021/jm00047a011 (Purdue University, 2021)

Legend:
[1] = target: T1, Nicotinamide N-methyltransferase (Mus musculus, UniProt O55239); assay: Inhibition of endogenous mouse NNMT overexpressed in murine 3T3-L1 cells assessed incubated for 24 hrs by LC-MS/MS analysis
T1 sequence (O55239 whole entry): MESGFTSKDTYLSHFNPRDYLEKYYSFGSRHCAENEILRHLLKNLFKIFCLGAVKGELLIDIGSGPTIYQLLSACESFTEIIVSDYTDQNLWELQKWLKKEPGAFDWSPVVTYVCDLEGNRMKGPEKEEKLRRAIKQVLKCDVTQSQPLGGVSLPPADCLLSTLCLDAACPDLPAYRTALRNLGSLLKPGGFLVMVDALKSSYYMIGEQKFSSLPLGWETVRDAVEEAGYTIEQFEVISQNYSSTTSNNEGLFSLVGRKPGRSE

[2] = target: T2, Nicotinamide N-methyltransferase (Homo sapiens, UniProt P40261); assay: Inhibition of endogenous human NNMT overexpressed in human U2OS cells assessed incubated for 24 hrs by LC-MS/MS analysis
T2 sequence (P40261 whole entry): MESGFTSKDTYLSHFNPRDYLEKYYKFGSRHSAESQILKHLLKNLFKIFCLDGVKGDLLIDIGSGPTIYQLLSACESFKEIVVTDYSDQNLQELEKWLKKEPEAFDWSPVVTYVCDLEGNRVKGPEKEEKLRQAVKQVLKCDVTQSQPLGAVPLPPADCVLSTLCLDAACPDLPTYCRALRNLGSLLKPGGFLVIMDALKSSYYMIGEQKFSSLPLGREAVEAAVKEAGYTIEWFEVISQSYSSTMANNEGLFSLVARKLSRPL

[3] = target: T2, Nicotinamide N-methyltransferase; assay: Binding affinity to recombinant human NNMT SAM binding site expressed in Escherichia coli BL21 (DE3) using nicotinamide as substrate and AdoMet as cofactor preincubated for 10 mins followed by substrate addition and measured after 10 mins by UHP-HILIC-MS analysis
[4] = target: T2, Nicotinamide N-methyltransferase; assay: Inhibition of NNMT (unknown origin) assessed as formation of MNA using nicotinamide as substrate and SAM as cofactor by fluorescence based assay

**Q.** Which results are given for `COc1ccc(C(N)=O)cn1`?
**A.** IC50 [1]: 6.3 µM; IC50 [2]: 1.6 µM

**Q.** For `Nc1ncnc2c1ncn2[C@@H]1O[C@H](CSCC[C@H](N)C(=O)O)[C@@H](O)[C@H]1O` [AdoHcy], which IC50 [3] is on record?
**A.** Its IC50 is 26.3 µM.

**Q.** Which IC50 [3] does the source give for `Nc1ncnc2c1ncn2[C@@H]1O[C@H](C[C@@H](N)CC[C@H](N)C(=O)O)[C@@H](O)[C@H]1O` [SINEFUNGIN] here?
**A.** The IC50 was 3.9 µM.

**Q.** Which IC50 [4] does the source give for `C=C(C)[C@@]12O[C@@]3(/C=C/C=C/CCCCC)O[C@@H]1[C@@H]1[C@@H]4O[C@]4(CO)[C@@H](O)[C@]4(O)C(=O)C(C)=C[C@H]4[C@@]1(O3)[C@H](C)[C@H]2OC(C)=O` [YUANHUADINE] here?
**A.** Its IC50 is 4 µM.
